ChEMBL document CHEMBL4308841, “Synthesis, in vitro antiproliferative activity, and kinase inhibitory effects of pyrazole-containing diarylureas and diarylamides” (Eur J Med Chem, 2018)

Assays:
TK-10 = experiment: Growth inhibition of human TK10 cells assessed as cell growth at 10 uM incubated for 48 hrs by sulforhodamine B assay relative to control; type: functional; details: TK-10, 48 h, read-out: Activity
LOX IMVI = experiment: Growth inhibition of human LOXIMVI cells incubated for 48 hrs by sulforhodamine B assay; type: functional
IGROV-1 = experiment: Growth inhibition of human IGROV1 cells incubated for 48 hrs by sulforhodamine B assay; type: functional, cell-based; details: IGROV-1, 48 h
NCI/ADR-RES = experiment: Growth inhibition of human NCI/ADR-RES cells incubated for 48 hrs by sulforhodamine B assay; type: functional, cell-based
A498 = experiment: Growth inhibition of human A498 cells incubated for 48 hrs by sulforhodamine B assay; type: functional, cell-based; details: A498, 48 h
DU-145 = experiment: Growth inhibition of human DU145 cells incubated for 48 hrs by sulforhodamine B assay; type: functional, cell-based; details: DU-145, 48 h
MOLT-4 = experiment: Growth inhibition of human MOLT4 cells assessed as cell growth at 0.01 uM incubated for 48 hrs by sulforhodamine B assay relative to control; type: functional; details: MOLT-4, 48 h, read-out: Activity
HOP-62 [1] = experiment: Growth inhibition of human HOP62 cells assessed as cell growth at 0.01 uM incubated for 48 hrs by sulforhodamine B assay relative to control; type: functional; details: HOP-62, 48 h, read-out: Activity
HCT-116 = experiment: Growth inhibition of human HCT116 cells assessed as cell growth at 0.01 uM incubated for 48 hrs by sulforhodamine B assay relative to control; type: functional; details: HCT-116, 48 h, read-out: Activity
ACHN = experiment: Growth inhibition of human ACHN cells assessed as cell growth at 0.01 uM incubated for 48 hrs by sulforhodamine B assay relative to control; type: functional; details: read-out: Activity
HL-60(TB) = experiment: Growth inhibition of human HL-60(TB) cells assessed as cell growth at 0.1 uM incubated for 48 hrs by sulforhodamine B assay relative to control; type: functional; details: HL-60, 48 h, read-out: Activity
SNB-19 = experiment: Growth inhibition of human SNB19 cells assessed as cell growth at 0.1 uM incubated for 48 hrs by sulforhodamine B assay relative to control; type: functional; details: SNB-19, 48 h, read-out: Activity
SNB-75 = experiment: Growth inhibition of human SNB75 cells assessed as cell growth at 0.1 uM incubated for 48 hrs by sulforhodamine B assay relative to control; type: functional; details: SNB-75, 48 h, read-out: Activity
SK-MEL-2 [2] = experiment: Growth inhibition of human SK-MEL-2 cells assessed as cell growth at 0.1 uM incubated for 48 hrs by sulforhodamine B assay relative to control; type: functional; details: SK-MEL-2, 48 h, read-out: Activity
SK-OV-3 = experiment: Growth inhibition of human SKOV3 cells assessed as cell growth at 0.1 uM incubated for 48 hrs by sulforhodamine B assay relative to control; type: functional; details: SK-OV-3, 48 h, read-out: Activity
SN12C = experiment: Growth inhibition of human SN12C cells assessed as cell growth at 0.1 uM incubated for 48 hrs by sulforhodamine B assay relative to control; type: functional; details: read-out: Activity
BT-549 = experiment: Growth inhibition of human BT549 cells assessed as cell growth at 0.1 uM incubated for 48 hrs by sulforhodamine B assay relative to control; type: functional; details: BT-549, 48 h, read-out: Activity
K562 = experiment: Growth inhibition of human K562 cells assessed as cell growth at 1 uM incubated for 48 hrs by sulforhodamine B assay relative to control; type: functional; details: K562, 48 h, read-out: Activity
KM12 = experiment: Growth inhibition of human KM12 cells assessed as cell growth at 1 uM incubated for 48 hrs by sulforhodamine B assay relative to control; type: functional; details: KM12, 48 h, read-out: Activity
SK-MEL-28 = experiment: Growth inhibition of human SK-MEL-28 cells assessed as cell growth at 1 uM incubated for 48 hrs by sulforhodamine B assay relative to control; type: functional; details: SK-MEL-28, 48 h, read-out: Activity
UACC-62 = experiment: Growth inhibition of human UACC62 cells assessed as cell growth at 1 uM incubated for 48 hrs by sulforhodamine B assay relative to control; type: functional; details: UACC-62, 48 h, read-out: Activity
RPMI-8226 = experiment: Growth inhibition of human RPMI8226 cells assessed as cell growth at 100 uM incubated for 48 hrs by sulforhodamine B assay relative to control; type: functional; details: RPMI-8226, 48 h, read-out: Activity
HOP-62 [3] = experiment: Growth inhibition of human HOP62 cells assessed as cell growth at 100 uM incubated for 48 hrs by sulforhodamine B assay relative to control; type: functional; details: HOP-62, 48 h, read-out: Activity
NCI-H226 = experiment: Growth inhibition of human NCI-H226 cells assessed as cell growth at 100 uM incubated for 48 hrs by sulforhodamine B assay relative to control; type: functional; details: NCI-H226, 48 h, read-out: Activity
HCT-15 = experiment: Growth inhibition of human HCT15 cells assessed as cell growth at 100 uM incubated for 48 hrs by sulforhodamine B assay relative to control; type: functional; details: HCT-15, 48 h, read-out: Activity
SK-MEL-2 [4] = experiment: Growth inhibition of human SK-MEL-2 cells assessed as cell growth at 100 uM incubated for 48 hrs by sulforhodamine B assay relative to control; type: functional; details: SK-MEL-2, 48 h, read-out: Activity
UACC-257 = experiment: Growth inhibition of human UACC257 cells assessed as cell growth at 100 uM incubated for 48 hrs by sulforhodamine B assay relative to control; type: functional; details: UACC-257, 48 h, read-out: Activity
OVCAR-3 = experiment: Growth inhibition of human OVCAR3 cells assessed as cell growth at 100 uM incubated for 48 hrs by sulforhodamine B assay relative to control; type: functional; details: OVCAR-3, 48 h, read-out: Activity
OVCAR-8 = experiment: Growth inhibition of human OVCAR8 cells assessed as cell growth at 100 uM incubated for 48 hrs by sulforhodamine B assay relative to control; type: functional; details: OVCAR-8, 48 h, read-out: Activity
PC-3 = experiment: Growth inhibition of human PC3 cells assessed as cell growth at 100 uM incubated for 48 hrs by sulforhodamine B assay relative to control; type: functional; details: PC-3, 48 h, read-out: Activity
[5] = read-out: LC50 (the source's name)
[6] = read-out: pLC50 (the source's name) (converted)

In the case of `COc1cc(Cl)cc(-c2nn(-c3cccc(NC(=O)Nc4cccc(C(F)(F)F)c4)c3)cc2-c2ccncc2)c1`, the growth at 10 µM (TK-10) is reported as 23.4%, the GI50 (LOX IMVI; read-out: GI50) is reported as 1510 nM and the CC50 (LOX IMVI; [5]) is reported as 82.8 µM. For the same compound, the TGI (LOX IMVI; read-out: TGI) was 70.4 µM, the GI50 (LOX IMVI; read-out: pGI50 (converted)) was 1820 nM and the CC50 (LOX IMVI; [6]) was 83.2 µM. It also gave a TGI (LOX IMVI; read-out: pTGI (converted)) of 7.08 µM, a GI50 (IGROV-1; read-out: GI50) of 2560 nM and a CC50 (IGROV-1; [5]) of over 100 µM. The TGI (IGROV-1; read-out: TGI) was 22.7 µM, the GI50 (IGROV-1; read-out: pGI50 (converted)) was 2880 nM and the CC50 (IGROV-1; [6]) was over 100 µM. The TGI (IGROV-1; read-out: pTGI (converted)) was 22.9 µM, the GI50 (NCI/ADR-RES; read-out: GI50) was 1650 nM and the CC50 (NCI/ADR-RES; [5]) was over 100 µM. The TGI (NCI/ADR-RES; read-out: TGI) was 75.1 µM, the GI50 (NCI/ADR-RES; read-out: pGI50 (converted)) was 1660 nM and the CC50 (NCI/ADR-RES; [6]) was over 100 µM. The TGI (NCI/ADR-RES; read-out: pTGI (converted)) was 7.76 µM, the GI50 (A498; read-out: GI50) was 2250 nM and the CC50 (A498; [5]) was over 100 µM. The TGI (A498; read-out: TGI) was 25.5 µM, the GI50 (A498; read-out: pGI50 (converted)) was 2240 nM and the CC50 (A498; [6]) was over 100 µM. The TGI (A498; read-out: pTGI (converted)) was 25.7 µM, the GI50 (DU-145; read-out: GI50) was 2610 nM and the CC50 (DU-145; [5]) was over 100 µM. The TGI (DU-145; read-out: TGI) was over 100 µM, the GI50 (DU-145; read-out: pGI50 (converted)) was 2630 nM and the CC50 (DU-145; [6]) was over 100 µM. It also gave a TGI (DU-145; read-out: pTGI (converted)) of over 100 µM, a growth at 0.01 µM (MOLT-4) of 95% and a growth at 0.01 µM (HOP-62 [1]) of 96%. The growth at 0.01 µM (HCT-116) was 101%, the growth at 0.01 µM (ACHN) was 108% and the growth at 0.1 µM (HL-60(TB)) was 98%. For the same compound, the growth at 0.1 µM (SNB-19) was 96%, the growth at 0.1 µM (SNB-75) was 55% and the growth at 0.1 µM (SK-MEL-2 [2]) was 55%. For the same compound, the growth at 0.1 µM (SK-OV-3) was 98%, the growth at 0.1 µM (SN12C) was 96% and the growth at 0.1 µM (BT-549) was 114%. It also gave a growth at 1 µM (K562) of 45%, a growth at 1 µM (KM12) of 38% and a growth at 1 µM (SK-MEL-28) of 82%. It also gave a growth at 1 µM (UACC-62) of 70%, a growth at 100 µM (RPMI-8226) of -43% and a growth at 100 µM (HOP-62 [3]) of -41%. The growth at 100 µM (NCI-H226) was -22%, the growth at 100 µM (HCT-15) was -72% and the growth at 100 µM (SK-MEL-2 [4]) was -68%. It also gave a growth at 100 µM (UACC-257) of -72%, a growth at 100 µM (OVCAR-3) of -41% and a growth at 100 µM (OVCAR-8) of -43%. For the same compound, the growth at 100 µM (PC-3) was -35%.
